Measurements from patent US20050203011A1, “Mitigating symptoms and behaviors of substance abuse by modulating GDNF or BDNF pathway activity” (The Regents of the University of California, priority 2003, published 2005).

Columns and labels:
[1] = test system: C57B1/6 mice or BDNF+/+ and BDNF± mice; assay: Ethanol self-administration in mice (two-bottle choice); type: in vivo, mouse; settings: for ethanol consumption: wildtype mice
Protocol: Voluntary ethanol intake in singly-housed adult male C57B1/6 mice or BDNF+/+ and BDNF±mice was established by placing a bottle containing 10% ethanol in tap water (v/v) on the home cage next to an identical bottle filled with tap water for at least 1 month. Only subjects that consumed at least 40% of their total fluid volume as ethanol were included in these studies. All injections (PBS/10% glycerol vehicle, Tat-KEP27, K252a and/or Tat-RACK1) were conducted at 15:00 hours; ethanol and water intake were measured 18 hours later at 09:00 hours. Treatments were tested using a within-subjects design; subjects received one or two injections per week. Chemicals were administered in injection volumes of 1-3 ml per 100 g body weight. The effect of a deprivation period on consumption was tested by allowing mice continuous access to a bottle of 20% ethanol in tap water and a bottle of tap water on the home cage for 2 weeks. The ethanol bottle was removed for 2 weeks. Intake of 20% ethanol and of water was measured for 4 days after the ethanol was reintroduced.

Trk receptor = target: T1, Trk receptor (Rattus norvegicus, UniProt Q63604); assay: Trk phosphorylation in striatal slices (Western blot); type: cell-based; settings: 1 μM Tat-RACK1 together with 200 nM K252a, 4 hours
T1 construct: from tissue; host or cells: striatal slices (dorsal striatum and NAc) of Sprague-Dawley rats
Protocol: Coronal striatal slices ([…]) were prepared from 3-4 week old male Sprague-Dawley rats. Slices were maintained for at least 1 hour in artificial cerebrospinal fluid (αCSF) containing (in mM): 126 NaCl, 1.2 KCl, 1.2 NaH2PO4, 0.01 MgCl2, 2.4 CaCl2, 18 NaHCO3 and 11 glucose saturated with 95% O2/5% CO2 at […]. […] Brain homogenates were prepared after in vivo protein transduction. Adult C57B1/6 mice were injected i.p. with vehicle or 4 mg/kg of Tat-RACK1. Four hours later, brains were immediately removed and homogenized and protein extracts were prepared as described above.
Samples ([…]) were resolved on a 10% SDS-PAGE and transferred to a nitrocellulose membrane. Membranes were probed with the appropriate antibodies and immunoreactivity was detected with enhanced chemilluminescence (Amersham Bioscience) and processed using the STORM system (Molecular Dynamic).

[2] = in vivo; cited from earlier work
ERK1/2 = ERK1/2 phosphorylation in SHSY5Y cells; type: cell-based, human; settings: 10 μM ibogaine 3 hours, U0126 20 μM, PD98059 40 μM 30 minutes or PI-PLC 0.3 unit/ml 1 h pre-incubation
Protocol: ERK2 and pERK1/2 were detected by Western blot analysis with anti-ERK2 and pERK1/2 antibodies respectively. Line-graph depicts the mean ratio (pERK2/ERK2)±SD of 3 experiments. […] Panel C: Cells were pre-incubated with 0.3 unit/ml PI-PLC for 1 h (lane 3).

[3] = test system: tyrosine hydroxylase (TH); assay: Tyrosine hydroxylase (TH) protein levels in SHSY5Y cells; type: cell-based, human
Protocol: Panel A: SHSY5Y cells were treated with different concentrations (0, 10, 25, and 100 mM) of ethanol for 24 hours. TH protein levels and control Actin levels were determined by Western blot analysis. Histogram depicts the mean ratio (TI/actin)±SD of 3 experiments. Panel B: Cells were treated with media (control), 100 ng/ml of GDNF for 12 h (lane 1), 100 mM ethanol for 24 hours (lane 2), or 100 mM ethanol for 24 hours to which 100 ng/ml GDNF was added for the last 12 hours (lane 3). The cells were lysed for Western blot analysis. Histogram depicts the mean ratio (TH/actin)±SD of 3 experiments. […] Histogram depicts the mean ratio (TH/actin)±SD of 3 experiments.

BDNF [4] = assay: BDNF expression in primary hippocampal cultures (RT-PCR); type: cell-based, rat; settings: primary hippocampal neurons
Protocol: Sprague-Dawley rats (P0) were decapitated and hippocampi were dissected bilaterally. Cells were dissociated by enzyme digestion with papain followed by brief mechanical trituration and plated on poly-D-lysine treated flasks. Cells were plated (1×10^6 cells/chamber) and maintained in Neurobasal media supplemented with B27, penicillin, streptomycin and Glutamax-1 and maintained in culture for 3 weeks. Following treatment, total RNAs were isolated using Trizol reagent and reverse transcribed (RT) using the Reverse Transcription System kit. The RT products were used for analysis of the expression of BDNF and the control gene […] (GPDH) by polymerase chain reaction (PCR) described in (Yaka et al. (2003) J. Biol. Chem. 278: 9630-9638). The PCR products were photographed by Eagle Eye II (Stratagene), and quantified by using NIH Image 1.61.

[5] = test system: primary hippocampal neurons; assay: RACK1 / Tat-RACK1 nuclear localization in primary hippocampal neurons (confocal microscopy); type: cell-based, rat; settings: 100 mM ethanol 30 minutes
Protocol: Primary hippocampal neurons were washed in cold PBS containing 0.1% Triton X-100, fixed in cold methanol and blocked in PBS containing 0.1% Triton X-100 and 3% Normal Goat Serum. lrmunostaining was performed with monoclonal monoclonal IgG HA antibodies (1:150). Staining was detected with anti FITC antibodies (1:500). Nuclei were detected with the nuclear marker TOTO-3 (1: 10000). Slides were viewed with a laser scanning confocal microscope (Zeiss LSM 510 Meta). Z-field images were processed by obtaining the middle Z field sections using LSM 5 Image Browse (Scion Corporation) and Adobe Photoshop (Adobe Systems Inc.). For immunocytochemistry used to detect the presence of Tat-RACK1 in the brain, C57 mice were injected i.p. with vehicle or 4 mg/kg Tat-RACK1. Animals were decapitated 4 hours post injection and brains were quickly removed and frozen at −50° C. in isopentane. Slide-mounted saggital striatal sections ([…]) were immersed for 10 minutes in cold (−20° C.) mixture of 75% methanol and 25% acetone, re-hydrated, rinsed in PBS and incubated in 10% normal donkey serum. Rat monoclonal anti-HA antibody (1:2,000 in PBS) was applied overnight in a humid chamber. […]

BDNF [6] = assay: BDNF expression in vivo (RT-PCR of tissue punches); design: species or system mouse; settings: C57 mice, voluntary consumption of 10% ethanol for 2 weeks
Description: The primers for NGF were designed as follows: […]

NGF = settings: C57 mice, voluntary ethanol consumption, striatum and PFC
Protocol: Adult male C57B1/6 mice were decapitated 3 hours after the start of the dark cycle, for mice with access to ethanol, or 6 hours following i.p. injection of vehicle or Tat-RACK1 (4 mg/kg), for naïve animals. Brains were rapidly removed and bilateral tissue punches of the striatum and PFC were frozen in liquid nitrogen. BDNF, NGF and GPDH expression were analyzed by RT-PCR as described above for hippocampal cultures. The primers for NGF were designed as follows: […]

BDNF [7] = assay: BDNF secretion from dissociated hippocampal neurons (ELISA); type: cell-based, rat; settings: 1 μM, 6 hours
Protocol: BDNF or NGF secretion was measured in media from dissociated hippocampal neurons or from striatal slices using Emax ImmunoAssay according to (Balkowiec and Katz (2000) J. Neurosci., 20: 7417-7423)) and (Heaton et al. (2003) Brain Res. Dev. Brain Res. 140: 237-252), respectively. BDNF or NGF concentrations were interpolated from the standard curves (linear range of 7.8-500 pg/ml).

Long Evans rats = assay: Ethanol self-administration in rats after intracerebroventricular (i.c.v.) microinjections; type: in vivo, rat; settings: i.c.v. microinjection, intake 24 hours after treatment
Protocol: Adult male Long Evans rats were trained in the two-bottle choice ethanol self-administration procedure as described above for mice. Three weeks after ethanol exposure commenced, a 26 gauge cannula was placed into the right lateral ventricle (stereotaxic coordinates AP: −0.8, ML: −1.4, DV: −3.6, relative to bregma) of anesthetized subjects. Three weeks later, subjects received weekly i.c.v. microinjections of vehicle, Tat-RACK1, or the Tat-peptide (injection volume […]) at approximately 15:30, or 3.5 hours before lights out. Intake was measured 24 hours after treatment. All subjects received vehicle and Tat-RACK1 injections; a subset of subjects was also injected with the Tat-peptide. Cannula locations were verified histologically at the conclusion of the experiment.

T1 sequence (Q63604 32-821): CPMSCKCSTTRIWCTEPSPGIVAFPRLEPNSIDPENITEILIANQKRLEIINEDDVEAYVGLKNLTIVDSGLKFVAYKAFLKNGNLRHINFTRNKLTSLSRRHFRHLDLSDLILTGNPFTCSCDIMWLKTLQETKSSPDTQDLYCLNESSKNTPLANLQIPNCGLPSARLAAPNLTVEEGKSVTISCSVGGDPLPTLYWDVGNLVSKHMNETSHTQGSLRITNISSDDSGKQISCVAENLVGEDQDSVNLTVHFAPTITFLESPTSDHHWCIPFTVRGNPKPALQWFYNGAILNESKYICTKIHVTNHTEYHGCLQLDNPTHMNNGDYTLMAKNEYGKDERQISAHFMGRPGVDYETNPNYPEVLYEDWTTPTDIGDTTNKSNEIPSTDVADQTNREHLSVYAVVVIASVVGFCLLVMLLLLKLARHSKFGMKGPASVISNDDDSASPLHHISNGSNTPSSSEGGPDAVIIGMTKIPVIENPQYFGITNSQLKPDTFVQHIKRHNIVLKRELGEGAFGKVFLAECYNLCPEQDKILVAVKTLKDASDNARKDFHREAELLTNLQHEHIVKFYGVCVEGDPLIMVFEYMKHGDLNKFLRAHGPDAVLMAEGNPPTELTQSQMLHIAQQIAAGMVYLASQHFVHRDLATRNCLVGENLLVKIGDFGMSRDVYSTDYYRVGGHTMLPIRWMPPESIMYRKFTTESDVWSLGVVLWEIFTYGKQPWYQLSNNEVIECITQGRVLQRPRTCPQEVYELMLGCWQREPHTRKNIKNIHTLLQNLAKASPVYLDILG

In the case of `COC(=O)[C@@]1(O)C[C@H]2O[C@]1(C)n1c3ccccc3c3c4c(c5c6ccccc6n2c5c31)C(=O)NC4` [K252a], the “reduction in ethanol intake by Tat-RACK1, co-injection with K252a” value ([1]; mice, Tat-RACK1 4 mg/kg + K252a) is reported as “prevented the reduction in ethanol intake”, the ethanol consumption ([1]; K252a 5 mg/kg i.p.) is reported as “increased” and the ethanol consumption ([1]; K252a 25 mg/kg i.p.) is reported as “increased”. The “Tat-RACK1-induced Trk phosphorylation” value (Trk receptor) was “reduced”.

In the case of `CC[C@H]1C[C@H]2C[C@H]3c4[nH]c5ccc(O)cc5c4CCN(C2)[C@@H]13` [Noribogaine], the “metabolite detection after ibogaine administration” value [2] is listed as “detected at high concentrations within 24 hours after administration”.

With `COc1cccc(-c2cc(=O)c3ccccc3o2)c1N` [PD98059] the “ERK1/2 phosphorylation induced by ibogaine” value (ERK1/2) was “blocked”.

With `N#CC(=C(/N)Sc1ccccc1N)/C(C#N)=C(\N)Sc1ccccc1N` [U0126] the “ERK1/2 phosphorylation induced by ibogaine” value (ERK1/2) was “blocked”.

With `CCO` [ethanol] the “ethanol concentration resulting in an increase in TH immunoreactivity (as low as)” value [3] was 10 mM, the “protein level of TH” value ([3]; ethanol 24 hours, dose-dependent) was “significant increase” and the “ethanol concentrations (as low as) that increased BDNF expression” value (BDNF [4]; 0.5 hours) was 10 to 25 mM. For the same molecule, the “expression levels of BDNF” value (BDNF [4]; acute ethanol, dose- and time-dependent) was “increased”, the BDNF expression (BDNF [4]; continuous ethanol 24 or 48 hours) was “reduced BDNF expression to below basal levels” and the RACK1 nuclear translocation [5] was “translocation of RACK1 into the nucleus”. For the same molecule, the “expression levels of BDNF in the prefrontal cortex (PFC)” value (BDNF [6]) was “but not the prefrontal cortex”, the “expression levels of BDNF in the striatum” value (BDNF [6]) was “significantly increased” and the “expression of NGF” value (NGF) was “no change”.

In the case of YGRKKRRQRRR [Tat-peptide], the “secretion of BDNF” value (BDNF [7]) is reported as “no change” and the ethanol intake (Long Evans rats) is reported as “no effect”.

B1: GDNF: Human glial-cell line derived neurotrophic factor (protein)
chain: SPDKQMAVLPRRERNRQAAAANPENSRGKGRRGQRGKNRGCVLTAIHLNVTDLGLGYETKEELIFRYCSGSCDAAETTYDKILKNLSRNRRLVSDKVGQACCRPIAFDDDLSFLDDNLVYHILRKHSAKRCGCI
In the case of B1, the “ethanol-induced increase in TH immunoreactivity” value ([3]; 100 mM ethanol 24 hours, GDNF 100 ng/ml or ibogaine 10 μM added for last 12 hours) is reported as “inhibited”.
